Values quoted from earlier work in US6468993B1, “Method for reducing development of osteoporosis” (BioNumerik Pharmaceuticals, Inc., priority 1999, dated 2002).

Tests used:
mice = details: intravenously, doses higher than 3750 mg/kg
humans = details: doses exceeding 40 g/m^2
dogs = details: intravenously, doses higher than 3750 mg/kg

Row | Compound | accepted oral LD50 | adverse effects after administration (mice) | adverse effects after administration (humans) | adverse effects after administration (dogs)
1 | [Cl-].[Na+] [common table salt] | 3750 mg/kg |  |  | 
2 | O=S(=O)([O-])CCSSCCS(=O)(=O)[O-].[Na+].[Na+] [dimesna, disodium 2,2′-dithiobis ethane sulfonate] |  | no adverse effects | no adverse effects | no adverse effects
